From ChEMBL document CHEMBL6182832, “Design and synthesis of coumarin-based amphoteric antimicrobials with biofilm interference and immunoregulation effects” (RSC Med Chem, 2025)
The source made the active and inactive calls.

What was measured:
Staphylococcus aureus [1] = assay: Resistance index, ratio of MIC100 for antibacterial activity against clinically isolated Staphylococcus aureus ATCC29213 assessed as inhibition of bacterial growth at 1/2 times of MIC measured after 24 consecutive passages to MIC100 for antibacterial activity against clinically isolated Staphylococcus aureus ATCC29213; type: functional
Escherichia coli [2] = assay: Anti-biofilm activity against clinically isolated Escherichia coli DE17 assessed inhibition of biofilm formation at 8 ug/ml measured after 12 to 16 hrs incubation by crystal violet staining based analysis; type: functional; details: time 12-16 hrs
Escherichia coli [3] = assay: Antibacterial activity against clinically isolated Escherichia coli DE17 assessed as inhibition of bacterial growth measured after 16 to 24 hrs by broth microdilution method; type: functional; details: time 16-24 hrs, read-out: MIC100
[4] = In vivo toxicity in KM mouse assessed as hemoglobin (HGB) in blood collected from eyes of mouse at 15 mg/kg, sc; type: organism-based
Escherichia coli [5] = assay: Anti-biofilm activity against clinically isolated Escherichia coli DE17 assessed inhibition of biofilm formation at 16 ug/ml measured after 12 to 16 hrs incubation by crystal violet staining based analysis; type: functional; details: time 12-16 hrs
Staphylococcus aureus [6] = assay: Antibacterial activity against clinically isolated Staphylococcus aureus ATCC29213 assessed as inhibition of bacterial growth at 1/2 times of MIC measured after 24 consecutive passages by broth microdilution method; type: functional, organism-based
Bacillus cereus = assay: Antibacterial activity against clinically isolated Bacillus cereus CMCC63303 assessed as inhibition of bacterial growth measured after 16 to 24 hrs by broth microdilution method; type: functional; details: time 16-24 hrs, read-out: MIC100
Staphylococcus aureus [7] = assay: In vivo antibacterial activity against clinically isolated Staphylococcus aureus ATCC29213 infected KM mouse skin abscess model assessed as decrease in bacterial survival in skin at 5 mg/kg, sc measured after 24 hrs by Hematoxylin and Eosin staining based analysis; type: functional, organism-based
[8] = In vivo toxicity in KM mouse assessed as survival rate at 40 mg/kg, sc relative to control; type: organism-based
Staphylococcus aureus [9] = assay: In vivo antibacterial activity against clinically isolated Staphylococcus aureus ATCC29213 infected KM mouse skin abscess model assessed as aggregation of inflammatory cells into epidermis and dermis of skin at 5 mg/kg, sc measured after 24 hrs by Hematoxylin and Eosin staining based analysis; type: functional, organism-based
Staphylococcus aureus [10] = assay: Biofilm eradication activity against Staphylococcus aureus ATCC29213 assessed biofilm scavenging at 2 ug/ml measured after 12 to 16 hrs incubation by crystal violet staining based analysis; type: functional, organism-based; details: dose 2.0 µg/ml, time 12-16 hrs
[11] = In vivo toxicity in KM mouse assessed as platelet count (PLT) in blood collected from eyes of mouse at 15 mg/kg, sc; type: organism-based
[12] = In vivo toxicity in KM mouse assessed as urea (UREA) in blood collected from eyes of mouse at 15 mg/kg, sc; type: organism-based
Staphylococcus aureus [13] = assay: Antibacterial activity against clinically isolated methicillin-resistant Staphylococcus aureus assessed as inhibition of bacterial growth measured after 16 to 24 hrs by broth microdilution method; type: functional; details: time 16-24 hrs, read-out: MIC100
Escherichia coli [14] = assay: Anti-biofilm activity against clinically isolated Escherichia coli DE17 assessed inhibition of biofilm formation at 0.5 to 128 ug/ml measured after 12 to 16 hrs incubation by crystal violet staining based analysis; type: functional, organism-based; details: dose 0.5-128 µg/ml, time 12-16 hrs
Staphylococcus aureus [15] = assay: Anti-biofilm activity against clinically isolated Staphylococcus aureus ATCC29213 assessed inhibition of biofilm formation at 0.5 to 128 ug/ml measured after 12 to 16 hrs incubation by crystal violet staining based analysis; type: functional, organism-based; details: dose 0.5-128 µg/ml, time 12-16 hrs
Staphylococcus aureus [16] = assay: Anti-biofilm activity against clinically isolated Staphylococcus aureus ATCC29213 assessed inhibition of biofilm formation at 2 ug/ml measured after 12 to 16 hrs incubation by crystal violet staining based analysis; type: functional; details: time 12-16 hrs
Enterococcus faecalis = assay: Antibacterial activity against clinically isolated Enterococcus faecalis ATCC29212 assessed as inhibition of bacterial growth measured after 16 to 24 hrs by broth microdilution method; type: functional; details: time 16-24 hrs, read-out: MIC100
[17] = In vivo toxicity in KM mouse assessed as survival rate at 5 mg/kg, sc relative to control; type: organism-based
Escherichia coli [18] = assay: Biofilm eradication activity against Escherichia coli DE17 assessed biofilm scavenging at 8 ug/ml measured after 12 to 16 hrs incubation by crystal violet staining based analysis; type: functional, organism-based; details: dose 8.0 µg/ml, time 12-16 hrs
Staphylococcus aureus [19] = assay: In vivo antibacterial activity against clinically isolated Staphylococcus aureus ATCC29213 infected KM mouse skin abscess model assessed as decrease in bacterial load in skin at 5 mg/kg, sc measured after 24 hrs by Hematoxylin and Eosin staining based analysis; type: functional, organism-based
[20] = In vivo toxicity in KM mouse assessed as mean corpuscular volume (MCV) in blood collected from eyes of mouse at 15 mg/kg, sc; type: organism-based
[21] = In vivo toxicity in KM mouse assessed as hematocrit (HCT) in blood collected from eyes of mouse at 15 mg/kg, sc; type: organism-based
[22] = In vivo toxicity in KM mouse assessed as albumin (ALB) in blood collected from eyes of mouse at 15 mg/kg, sc; type: organism-based
Staphylococcus aureus [23] = assay: Anti-biofilm activity against clinically isolated Staphylococcus aureus ATCC29213 assessed inhibition of biofilm formation at 4 ug/ml measured after 12 to 16 hrs incubation by crystal violet staining based analysis; type: functional; details: time 12-16 hrs
[24] = Hemolytic activity in rabbit erythrocytes assessed as hemolysis at >8 ug/ml; type: toxicity, cell-based, Oryctolagus cuniculus; details: erythrocyte, dose > 8 µg/ml
Listeria monocytogenes = assay: Antibacterial activity against clinically isolated Listeria monocytogenes CICC21662 assessed as inhibition of bacterial growth measured after 16 to 24 hrs by broth microdilution method; type: functional; details: time 16-24 hrs, read-out: MIC100
Escherichia coli [25] = assay: Antibacterial activity against clinically isolated Escherichia coli ATCC25922 assessed as inhibition of bacterial growth measured after 16 to 24 hrs by broth microdilution method; type: functional; details: time 16-24 hrs, read-out: MIC100
Staphylococcus aureus [26] = assay: Antibacterial activity against clinically isolated Staphylococcus aureus ATCC29213 assessed as inhibition of bacterial growth measured after 16 to 24 hrs by broth microdilution method; type: functional; details: time 16-24 hrs, read-out: MIC100
Staphylococcus aureus [27] = assay: In vivo antibacterial activity against clinically isolated Staphylococcus aureus ATCC29213 infected KM mouse skin abscess model assessed as reduction in size of abscess in dorsal skin and intradermal tissue at 5 mg/kg, sc measured after 24 hrs by Hematoxylin and Eosin staining based analysis; type: functional, organism-based
Staphylococcus aureus [28] = assay: Antibacterial activity against clinically isolated Staphylococcus aureus ATCC29213 assessed as inhibition of bacterial growth at 2 times of MIC measured after 18 hrs by broth microdilution method; type: functional
RAW264.7 = assay: Anti-inflammatory activity against mouse RAW264.7 cells assessed as inhibition LPS-stimulated NO production 0.5 to 4 ug/ml measured after 24 hrs by NO assay kit; type: functional, cell-based; details: dose 0.5-4 µg/ml
[29] = In vivo toxicity in KM mouse assessed as red blood cells (RBC) in blood collected from eyes of mouse at 15 mg/kg, sc; type: organism-based
Bacillus subtilis = assay: Antibacterial activity against clinically isolated Bacillus subtilis ATCC6633 assessed as inhibition of bacterial growth measured after 16 to 24 hrs by broth microdilution method; type: functional; details: time 16-24 hrs, read-out: MIC100
[30] = In vivo toxicity in KM mouse assessed as survival rate at 10 mg/kg, sc relative to control; type: organism-based
[31] = In vivo toxicity in KM mouse assessed as white blood cells (WBC) in blood collected from eyes of mouse at 15 mg/kg, sc; type: organism-based
[32] = In vivo toxicity in KM mouse assessed as redness and swelling skin at site of compound administration at 20 to 40 mg/kg, sc; type: organism-based; details: dose 20-40 mg/kg
[33] = In vivo toxicity in KM mouse assessed as survival rate at 20 mg/kg, sc relative to control; type: organism-based
[34] = In vivo toxicity in KM mouse assessed as creatinine (CREA) in blood collected from eyes of mouse at 15 mg/kg, sc; type: organism-based
[35] = In vivo toxicity in KM mouse assessed as survival rate at 15 mg/kg, sc relative to control; type: organism-based

Cc1onc(-c2ccccc2)c1C(=O)N[C@@H]1C(=O)N2[C@@H]1SC(C)(C)[C@@H]2C(=O)O [OXACILLIN]
8: Ratio (Staphylococcus aureus [1])

CCN(CC)CCCCCCCCCCCCOc1ccc2ccc(=O)oc2c1
4 µg/mL: MIC (Bacillus cereus) | MIC (Enterococcus faecalis)
2 µg/mL: MIC (Staphylococcus aureus [13]) | MIC (Listeria monocytogenes)
Non-toxic: Activity [4] | Activity [11] | Activity [12] | Activity [20] | Activity [21] | Activity [22] | Activity [29] | Activity [31] | Activity [34]
active: Activity (Staphylococcus aureus [6]) | Activity (Staphylococcus aureus [7]) | Activity (Staphylococcus aureus [9]) | Activity (Staphylococcus aureus [10]) | Activity (Escherichia coli [14]) Dose-dependent-effect | Activity (Staphylococcus aureus [15]) Dose-dependent-effect | Activity (Escherichia coli [18]) | Activity (Staphylococcus aureus [19]) | Activity (Staphylococcus aureus [27]) | Activity (RAW264.7)
100%: inhibition at 8 µg/mL (Escherichia coli [2]) | inhibition at 16 µg/mL (Escherichia coli [5]) | survival [8] | inhibition at 2 µg/mL (Staphylococcus aureus [16]) | survival [17] | inhibition at 4 µg/mL (Staphylococcus aureus [23]) | inhibition (INH) (Staphylococcus aureus [28]) | survival [30] | survival [33] | survival [35]
1 µg/mL: MIC (Staphylococcus aureus [26]) | MIC (Bacillus subtilis)
> 256 µg/mL: MIC (Escherichia coli [3]) | MIC (Escherichia coli [25])
Toxic: Activity [24] | Activity [32]
